Source: patent US10344019B2 (priority 2010, dated 2019)
pEC50: −log10 of the molar value.

Assays:
Format in all cases: cell-based
[1] = system: Q30R in genotype 1a NS5A, 1a Rluc replicon transfected into Huh-7 cured-51 cells; assay: HCV replicon assay, resistance mutant 1a Q30R; details: Hepatitis C virus, Huh-7, read-out: 1a Q30R
Protocol: Evaluation of cell-based anti-HCV activity: Antiviral potency (EC50) was determined using a Renilla luciferase (RLuc)-based HCV replicon reporter assay. To perform the assay for genotype 1 and 2a JFH-1, HCV 1b RLuc cells (harboring a dicistronic genotype 1b Con1 replicon that encodes a RLuc reporter), or HCV 1a RLuc cells (harboring a dicistronic genotype 1a H77 replicon that encodes a RLuc reporter), or HCV 2a JFH-1 Rluc cells (harboring a dicistronic genotype 2a JFH-1 replicon that encodes a RLuc reporter) were dispensed into 384-well plates. To perform the assay for genotype 2a (with M31 present) or 2b, HCV 2a Rluc or 2b Rluc cells (both with M31 present) harboring a dicistronic NS5A chimeric genotype 2a JFH-1 replicon that encodes a RLuc reporter and either genotype 2a J6 strain NS5A gene or genotype 2b MD2b-1 NS5A gene (based on Los Alamos HCV database isolates, both with M31 present) respectively, were dispensed into 384-well plates. To perform the assay for genotype 3 and 4, HCV 3a RLuc or 4a Rluc cells harboring a dicistronic NS5A chimeric genotype 1b Con1 replicon that encodes a RLuc reporter and either a consensus genotype 3a NS5A gene or genotype 4a NS5A gene (based on Los Alamos HCV database isolates) respectively, were dispensed into 384-well plates. Compounds were re-suspended in DMSO at a concentration of 10 mM and serially diluted in DMSO either manually or using an automated pipeting instrument. Serially diluted compounds were mixed with cell culture media and added to the seeded cells. […] 72 hours later, cells were lysed and Renilla luciferase activity quantified as recommended by the manufacturer (Promega-Madison, Wis.). Non-linear regression was performed to calculate EC50 values.
To determine the antiviral potency (EC50) against resistance mutants, resistance mutations, including M28T, Q30R, Q30H, L31M, and Y93C in genotype 1a NS5A and Y93H in genotype 1b NS5A, were introduced individually into either 1a Rluc or 1b Rluc replicons described above by site directed mutagenesis. Replicon RNA of each resistant mutant was transfected into Huh-7 cured-51 cells and antiviral potency was determined on these transfected cells as described above.

[2] = system: HCV 3a RLuc cells (NS5A chimeric genotype 1b Con1 replicon with consensus genotype 3a NS5A gene); assay: microbe, parasite or virus in culture; details: Hepatitis C virus, read-out: 3a, genotype 3a NS5A chimeric replicon
Method in brief: (§1)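 Replicon cells stably carrying the listed RLuc-encoding dicistronic replicons were seeded and treated with DMSO serial dilutions of compound (10 mM stocks) diluted into culture medium. After 72 h, cells were lysed and Renilla luciferase activity measured. EC50 was derived by non-linear regression.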

[3] = system: HCV 1a RLuc cells (dicistronic genotype 1a H77 replicon, RLuc reporter); assay: microbe, parasite or virus in culture; details: Hepatitis C virus, genotype 1a H77 RLuc replicon; read-out: 1a
Method in brief: (§2)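 Renilla luciferase HCV replicon cells: dicistronic 1b Con1, 1a H77 or 2a JFH-1 replicons, or a JFH-1 chimera carrying J6 NS5A (M31 present). Compound in DMSO serial dilutions, 72 h incubation, then lysis and luciferase read. EC50 by non-linear regression.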

[4] = system: HCV 4a Rluc cells (NS5A chimeric genotype 1b Con1 replicon with genotype 4a NS5A gene); assay: microbe, parasite or virus in culture; details: Hepatitis C virus, read-out: 4a
Method in brief: as §1

[5] = system: HCV 2b Rluc cells (NS5A chimeric genotype 2a JFH-1 replicon with genotype 2b MD2b-1 NS5A gene, M31 present); assay: microbe, parasite or virus in culture; details: Hepatitis C virus, read-out: 2b
Method in brief: as §1

[6] = system: HCV 2a JFH-1 Rluc cells (dicistronic genotype 2a JFH-1 replicon, RLuc reporter); assay: microbe, parasite or virus in culture; details: Hepatitis C virus, genotype 2a JFH-1 RLuc replicon; read-out: 2a JFH
Method in brief: as §2

[7] = system: HCV 2a Rluc cells (NS5A chimeric genotype 2a JFH-1 replicon with genotype 2a J6 strain NS5A gene, M31 present); assay: HCV replicon reporter assay, genotype 2a J6 (M31 present); details: Hepatitis C virus, read-out: 2a J6
Method in brief: as §2

[8] = system: HCV 1b RLuc cells (dicistronic genotype 1b Con1 replicon, RLuc reporter); assay: microbe, parasite or virus in culture; details: Hepatitis C virus, read-out: 1b (nM)
Method in brief: as §2

SMILES | pEC50 [1] | pEC50 [2] | pEC50 [3] | pEC50 [4] | pEC50 [5] | pEC50 [6] | pEC50 [7] | EC50 [8]
COC(=O)N[C@H](C(=O)N1[C@H](c2nc3ccc4cc5c(cc4c3[nH]2)OCc2cc(-c3cnc(C4CCCN4C(=O)[C@H](NC(=O)OC)c4ccccc4)[nH]3)ccc2-5)C[C@@H]2CCC[C@@H]21)C(C)C (stereo partly drawn) [Example 574] | 9.00 to 12.00 | 9.00 to 12.00 | 9.00 to 12.00 | 9.00 to 12.00 | 9.00 to 12.00 | 9.00 to 12.00 | 9.00 to 12.00 | –
COC[C@H]1C[C@@H](c2nc3c([nH]2)-c2cc4c(cc2CC3)-c2ccc(-c3cnc([C@@H]5CCCN5C(=O)[C@@H](NC(=O)OC)C(C)C)[nH]3)cc2CO4)N(C(=O)[C@H](NC(=O)OC)c2ccccc2)C1 [Example 587] | 9.00 to 12.00 | 9.00 to 12.00 | 9.00 to 12.00 | 9.00 to 12.00 | 9.00 to 12.00 | 9.00 to 12.00 | 9.00 to 12.00 | –
COC(=O)N[C@H](C(=O)N1CCC[C@H]1c1ncc(-c2ccc3c(c2)COc2cc4c(ccc5nc([C@@H]6CCCN6C(=O)[C@H](NC(=O)OC)c6ccccc6)[nH]c54)cc2-3)[nH]1)[C@@H](C)OC [Example 588] | 9.00 to 12.00 | 9.00 to 12.00 | 9.00 to 12.00 | 9.00 to 12.00 | 9.00 to 12.00 | 9.00 to 12.00 | 9.00 to 12.00 | –
COC[C@H]1C[C@@H](c2ncc(-c3ccc4c(c3)COc3cc5c(ccc6nc([C@@H]7C[C@H](C)CN7C(=O)[C@@H](NC(=O)OC)C(C)C)[nH]c65)cc3-4)[nH]2)N(C(=O)[C@H](NC(=O)OC)c2ccccc2)C1 [Example 622] | 9.00 to 12.00 | 9.00 to 12.00 | 9.00 to 12.00 | – | 9.00 to 12.00 | 9.00 to 12.00 | 9.00 to 12.00 | 0.016 nM
COC[C@H]1C[C@@H](c2ncc(-c3ccc4c(c3)COc3cc5c(ccc6nc([C@@H]7CCCN7C(=O)[C@H](NC(=O)OC)c7ccccc7)[nH]c65)cc3-4)[nH]2)N(C(=O)[C@@H](NC(=O)OC)C(C)C)C1 [Example 625] | 9.00 to 12.00 | 9.00 to 12.00 | 9.00 to 12.00 | – | 9.00 to 12.00 | 9.00 to 12.00 | 9.00 to 12.00 | 0.031 nM
COC[C@H]1C[C@@H](c2ncc(-c3ccc4c(c3)COc3cc5c(ccc6nc([C@@H]7CCCN7C(=O)[C@H](NC(=O)OC)c7ccccc7)[nH]c65)cc3-4)[nH]2)N(C(=O)[C@@H](NC(=O)OC)[C@@H](C)OC)C1 [Example 626] | 9.00 to 12.00 | 9.00 to 12.00 | 9.00 to 12.00 | – | 9.00 to 12.00 | 9.00 to 12.00 | 9.00 to 12.00 | 0.03 nM
COC[C@H]1C[C@@H](c2ncc(-c3ccc4c(c3)COc3cc5c(ccc6nc([C@@H]7C[C@H]8C[C@H]8N7C(=O)[C@@H](NC(=O)OC)C(C)C)[nH]c65)cc3-4)[nH]2)N(C(=O)[C@H](NC(=O)OC)c2ccccc2)C1 [Example 633] | 9.00 to 12.00 | 9.00 to 12.00 | 9.00 to 12.00 | – | 9.00 to 12.00 | 9.00 to 12.00 | 9.00 to 12.00 | 0.02 nM
COC[C@H]1C[C@@H](c2ncc(-c3ccc4c(c3)COc3cc5c(ccc6nc([C@@H]7C[C@@H]8C[C@@H]8N7C(=O)[C@@H](NC(=O)OC)C(C)C)[nH]c65)cc3-4)[nH]2)N(C(=O)[C@H](NC(=O)OC)c2ccccc2)C1 [Example 636] | 9.00 to 12.00 | 9.00 to 12.00 | 9.00 to 12.00 | – | 9.00 to 12.00 | 9.00 to 12.00 | 9.00 to 12.00 | 0.011 nM
CC[C@H](C)[C@H](NC(=O)OC)C(=O)N1C[C@@H](C)C[C@H]1c1ncc(-c2ccc3c(c2)COc2cc4c(ccc5nc([C@@H]6C[C@H](COC)CN6C(=O)[C@H](NC(=O)OC)c6ccccc6)[nH]c54)cc2-3)[nH]1 [Example 639] | 9.00 to 12.00 | 9.00 to 12.00 | 9.00 to 12.00 | – | 9.00 to 12.00 | 9.00 to 12.00 | 9.00 to 12.00 | 0.011 nM
